Data reported in PMC12473540, “Cytotoxic Activity of Chemical Constituents of Clerodendrum glabrum and Combretum nelsonii Root Extracts Against Selected Cancer Cell Lines” (Plants, 2025).
pIC50: −log10 of the molar value. Converted amounts (≈) assume the structure as drawn. Read-outs that look alike come from different tables or passages of the source.

Assays:
[1] = test system: MCF-7; conditions: cited from earlier work
[2] = in vitro
Experimental: (§1) The antiproliferative activity of the crude extracts and compounds isolated from C. glabrum and C. nelsonii were tested against heterogenous human epithelial colorectal adenocarcinoma (Caco-2) and hormone receptor positive breast cancer (MCF-7) cells using the MTT assay. The Vero African green monkey kidney cells were used as the non-cancerous cell line for comparison. Doxorubicin was used as the positive control.
(§2) The cytotoxic activity of extracts and isolated compounds was evaluated using the MTT assay against colorectal adenocarcinoma (Caco-2, ATCC® HTB-37™), breast adenocarcinoma (MCF-7, ATCC® HTB-22™), and non-cancerous monkey kidney cells (Vero, ATCC® CCL-81™). Cell culture and maintenance were carried out following standard protocols. The cells were seeded in 96-well plates and exposed to varying concentrations of extracts (0.025–1 mg/mL) and compounds (0.2–200 µg/mL) for 48 h. Doxorubicin was used as a positive control, and DMSO as a negative control. Cell viability was determined by MTT reduction and absorbance was measured at 570 nm. LC50 values were calculated, and the selectivity index(SI) was obtained by dividing LC50 values of Vero cells by those of the cancer cell lines.

[3] = test system: prostate cancer PC3 cells; design: method as in doi:10.18063/cp.v1i4.255, PMID 20614808, PMID 25355727, doi:10.1076/phbi.37.2.148.6082; conditions: ferruginol; read-out: Literature report PC3 (IC50); cited from earlier work
[4] = test system: colon (COL-2) cancer cells; design: method as in doi:10.18063/cp.v1i4.255, PMID 20614808, PMID 25355727, doi:10.1076/phbi.37.2.148.6082; conditions: ferruginol; cited from earlier work
[5] = test system: human liver hepatocellular carcinoma HepG2 cells; design: method as in doi:10.18063/cp.v1i4.255, PMID 20614808, PMID 25355727, doi:10.1076/phbi.37.2.148.6082; conditions: ferruginol; read-out: Literature report HepG2 (IC50); cited from earlier work
[6] = test system: human epithelial colorectal adenocarcinoma (Caco-2) cells; experiment: in vitro; conditions: for CC50: Homo sapiens, Caco-2, 48 h, read-out: Caco-2 (LC50)
Experimental: as §1, §2

[7] = test system: gastric adenocarcinoma AGS cells; conditions: cited from earlier work
[8] = test system: hormone receptor positive breast cancer (MCF-7) cells; experiment: MTT cytotoxicity assay on MCF-7 cells; conditions: for CC50: Homo sapiens, MCF7, 48 h, read-out: MCF-7 (LC50); for Selectivity Index MCF-7: LC50 of Vero cells divided by LC50 of MCF-7
Experimental: as §1
as §2, with “The cells were seeded in 96-well plates and exposed to varying concentrations of extracts (0.025–1 mg/mL) and compounds (0.2–200 µg/mL) for 48 h.” left out

[9] = test system: human colon HCT116; design: method as in doi:10.4103/pm.pm_265_20; conditions: royleanone, result in words; cited from earlier work
[10] = test system: prostate cancer cells (LNCaP); design: method as in ref 45 (ref 58); conditions: royleanone; ref 45 (ref 58); read-out: Literature report LNCaP IC50; cited from earlier work
[11] = test system: breast MDA-MB-231 cancer cell lines; design: method as in doi:10.4103/pm.pm_265_20; conditions: royleanone; read-out: Literature report MDA-MB-231 IC50; cited from earlier work
[12] = MTT cytotoxicity assay on Caco-2 cells; conditions: African green monkey (Vero) and human (Caco-2), Caco-2
Experimental: as §1, §2

[13] = test system: prostate (DU-145); design: method as in ref 50 = [50]; 50. Akim A. Biological Activities of Oryzanol, Stigmasterol and Microminutinin on Human Breast Cancer Cell-Line, MCF-7 Ph.D. Thesis University Putra Malaysia Serdang, Malaysia 2004; conditions: cited from earlier work
[14] = test system: colon (KM20L2); design: method as in ref 50 = [50]; 50. Akim A. Biological Activities of Oryzanol, Stigmasterol and Microminutinin on Human Breast Cancer Cell-Line, MCF-7 Ph.D. Thesis University Putra Malaysia Serdang, Malaysia 2004; conditions: cited from earlier work
[15] = test system: tubulin; design: method as in PMID 12059907, PMID 10893310; conditions: combretastatin A-1; read-out: Tubulin inhibition IC50; cited from earlier work
[16] = test system: leukemia (P388); design: method as in ref 50 = [50]; 50. Akim A. Biological Activities of Oryzanol, Stigmasterol and Microminutinin on Human Breast Cancer Cell-Line, MCF-7 Ph.D. Thesis University Putra Malaysia Serdang, Malaysia 2004; conditions: cited from earlier work
[17] = test system: lung-NCS (NCI-H460); design: method as in ref 50 = [50]; 50. Akim A. Biological Activities of Oryzanol, Stigmasterol and Microminutinin on Human Breast Cancer Cell-Line, MCF-7 Ph.D. Thesis University Putra Malaysia Serdang, Malaysia 2004; conditions: cited from earlier work
[18] = test system: pancreas-a (BXPC-3); design: method as in ref 50 = [50]; 50. Akim A. Biological Activities of Oryzanol, Stigmasterol and Microminutinin on Human Breast Cancer Cell-Line, MCF-7 Ph.D. Thesis University Putra Malaysia Serdang, Malaysia 2004; conditions: cited from earlier work
[19] = test system: colon cancer cell Caco-2; design: method as in doi:10.4314/ecajps.v11i2.44769; conditions: stigmasterol; cited from earlier work
[20] = test system: human colon carcinoma SW620 cell lines; conditions: stigmasterol, in Table 2; cited from earlier work
[21] = test system: triple negative breast cancer HCC70 cells; design: method as in doi:10.4314/ecajps.v11i2.44769; conditions: stigmasterol; cited from earlier work
[22] = African green monkey, Vero kidney cells (ATCC CCL-81), non-cancerous

## CC(C)c1cc2c(cc1O)[C@@]1(C)CCCC(C)(C)[C@@H]1CC2 [Compound 1, 12-hydroxy-abieta-8,11,13-triene]
[1]; ferruginol, read-out: Literature report MCF-7 (IC50)
  pIC50: 4.92
[2]; African green monkey
  CC50 at 48 h: 0.0002 µg/mL (≈ 0.000698 µM)
[3]
  pIC50: 4.26
[4]
  Literature report colon (COL-2) ED50: > 20 µg/mL
[5]
  pIC50: 4.16
[6]; Caco-2
  Selectivity Index Caco-2: 8.23 × 10^−6
[6]
  CC50: 24.3 µg/mL (≈ 84.8 µM)
[7]; ferruginol, read-out: Literature report AGS (IC50)
  pIC50: 4.57
[8]
  CC50: 48.4 µg/mL (≈ 169 µM)

## CC(C)C1=C(O)C(=O)C2=C(CC[C@H]3C(C)(C)CCC[C@]23C)C1=O [Compound 2, 12-hydroxy-8,12-abietadiene-11,14-dione]
[9]
  Literature report colon HCT116: variable
[10]
  pIC50: 4.90
[11]
  pIC50: < 3.60
[2]
  CC50 at 48 h: 30.7 µg/mL (≈ 97 µM)
[6]
  CC50: > 200 µg/mL
[12]
  selectivity ratio at 48 h: < 0.15
[7]; royleanone, read-out: Literature report AGS IC50
  pIC50: 4.74
[8]
  CC50: > 200 µg/mL
  Selectivity Index MCF-7: <0.150

## COc1ccc(/C=C\c2cc(OC)c(OC)c(OC)c2)c(O)c1O [Compound 4, 3,4,5-trimethoxy-2′,3′hydroxyl-4′methoxy-stilbene]
[13]
  DU-145 GI50: 0.017 µg/mL
[14]
  KM20L2 GI50: 0.061 µg/mL
[15]
  pIC50: 5.96
[16]
  P388 GI50: 0.3 µg/mL
[2]
  CC50 at 48 h: 15.3 µg/mL (≈ 46 µM)
[17]
  NCI-H460 GI50: 0.74 µg/mL
[8]
  CC50: 72 µg/mL (≈ 217 µM)
  Selectivity Index MCF-7: 0.210
[18]
  BXPC-3 GI50: 4.4 µg/mL

## COc1ccc(C=Cc2cc(OC)c(OC)c(OC)c2)c(OC2OC(CO)C(O)C(O)C2O)c1O [Compound 5a, combretastatin A-1-2′-O-β-D-glucopyranoside]
[2]; [22]
  CC50 at 48 h: 83.8 µg/mL (≈ 169 µM)
[8]
  CC50: 44.1 µg/mL (≈ 89.2 µM)
  Selectivity Index MCF-7: 1.90

## COc1ccc(CCc2cc(OC)c(OC)c(OC)c2)c(OC2OC(CO)C(O)C(O)C2O)c1O [Compound 5b, combretastatin B-1-2′-O-β-D-glucopyranoside]
[2]; [22]
  CC50 at 48 h: 83.8 µg/mL (≈ 169 µM)
[8]
  CC50: 44.1 µg/mL (≈ 88.8 µM)
  Selectivity Index MCF-7: 1.90

## CC[C@H](C=C[C@@H](C)[C@H]1CC[C@H]2[C@@H]3CC=C4C[C@@H](O)CC[C@]4(C)[C@H]3CC[C@]12C)C(C)C [Compound 6, stigmasta-5,22-dien-3β-ol]
[19]
  pIC50: 3.88
[1]; stigmasterol, read-out: MCF-7 IC50
  pIC50: < 3.30
[20]
  pIC50: 5.55
[2]
  CC50 at 48 h: 137 µg/mL (≈ 332 µM)
[21]
  pIC50: < 3.30
[6]
  CC50: > 200 µg/mL
[12]
  selectivity ratio at 48 h: < 0.69
[8]
  CC50: > 200 µg/mL
  Selectivity Index MCF-7: <0.690

## COc1cccc2c1C(=O)c1c(O)c3c(c(O)c1C2=O)C[C@@](O)(C(=O)CO)C[C@@H]3O[C@H]1C[C@H](N)[C@H](O)[C@H](C)O1 [Doxorubicin, reference compound]
[2]; African green monkey
  CC50 at 48 h: 6.9 µg/mL (≈ 12.7 µM)
[6]
  CC50: 0.76 µg/mL (≈ 1.4 µM)
[12]
  selectivity ratio at 48 h: 9.08
[8]
  CC50: 3.1 µg/mL (≈ 5.7 µM)
  Selectivity Index MCF-7: 2.20
